These results are taken from patent US6063773A, “Cellulose sulfate for use as antimicrobial and contraceptive agent” (Polydex Pharmaceuticals Ltd., priority 1995, dated 2000).

Where only a bound is given, the exact number is not on record here.

The conditions of data set [1]: if used frequently; cited from earlier work.
The test system of data set [2] is rabbit spermatozoa. The data set can be described thus: Fertilization outcome after artificial insemination of spermatozoa pretreated with polysaccharides. As to conditions: for anti-fertility effect of treating spermatozoa: spermatozoa treated with comparator polysaccharide. The format is in vivo. From the text:
FIG. 1 is a table showing fertilization outcome after artificial insemination of spermatozoa pretreated with different polysaccharides.
FIG. 1 illustrates the antifertility effect of cellulose sulfate on rabbit spermatozoa at a concentration as low as 0.1%.

In data set [3] the test system is conception in rabbits. Nature of the data set: Contraceptive efficacy when applied vaginally. The format is in vivo, rabbit. From the text:
FIG. 2 is a table showing the contraceptive efficacy of cellulose sulfate when applied vaginally.

The conditions of data set [4]: rabbit, in vivo.
Data set [5] relates to spermatozoa. The data set can be described thus: Cervical mucus penetration experiments. The format is cell-based. The following applies: 1% concentration, in vitro, FIG. 3. From the text:
FIG. 3 is a table providing the results of cervical mucus penetration experiments.

Data set [6] relates to human spermatozoa. The data set can be described thus: Acrosome reaction of human spermatozoa. Format: cell-based. The following applies: FIG. 4. From the text:
FIG. 4 is a table illustrating the influence of cellulose sulfate on acrosome reaction of human spermatozoa.
Acrosome refers to the anterior organelle of the sperm head necessary for fertilization of an egg by the sperm.

The subject of data set [7] is HIV. The data set can be described thus: HIV inhibition assay. Format: cell-based. As to conditions: concentration of 0.005%, in vitro, FIG. 5. From the text:
FIG. 5 is a table illustrating the results of HIV inhibition assay experiments.

The test system of data set [8] is HSV. Nature of the data set: HSV infectivity experiments. The format is cell-based. The following applies: in vitro, FIG. 6. From the text:
FIG. 6 is a table providing the results of HSV infectivity experiments.

Data set [9] deals with N. gonorrhea. The data set can be described thus: Infectivity of N. gonorrhea. The following applies: FIG. 7. Format: cell-based. From the text: FIG. 7 is a table illustrating the effects of cellulose sulfate on the infectivity of N. gonorrhea.
(§1) Moreover, cellulose sulfate of the present invention at 1.8% has no effect on normal vaginal flora, namely Lactobacilli (FIG. 8).

Data set [10] concerns Lactobacilli. Nature of the data set: Growth of Lactobacilli. The format is cell-based. The following applies: 1.8%, FIG. 8.
Text: FIG. 8 is a table illustrating the effects of cellulose sulfate on the growth of Lactobacilli.
as §1

Data set [11] has as its system chlamydial infection of HeLa cells. The data set can be described thus: Anti-chlamydial effect, chlamydial infection of HeLa cells. The format is cell-based. As to conditions: 100 μg/ml, FIG. 9. How it is done:
FIG. 9 is a table illustrating anti-chlamydial effects of cellulose sulfate .
FIG. 9 illustrates anti-chlamydial effect of cellulose sulfate. At a concentration of 100 μg/ml, cellulose sulfate inhibits chlamydial infection of HeLa cells by 91%.

Data set [12] concerns HIV. The following applies: known from the art; cited from earlier work.
The subject of data set [13] is Herpes Simplex Virus (HSV). As to conditions: known from the art; cited from earlier work.

For nonoxynol-9, in data set [1], the “effect on natural vaginal flora” value is recorded as “inactivates the natural protective vaginal flora” and the “irritation of vaginal mucus membrane” value is listed as “causes irritation to the mucus membrane of the vagina”.
Turning to heparin [reference compound], in data set [2], the “anti-fertility effect of treating spermatozoa” value is “little or no anti-fertility effect”.
As to cellulose sulfate, the “conception in rabbits inseminated with treated spermatozoa” value in data set [2] (pre-treatment of spermatozoa with 1% cellulose sulfate) is recorded as “effectively prevented conception”. The “concentration showing antifertility effect on rabbit spermatozoa” value in data set [2] (pre-treatment of spermatozoa, artificial insemination, FIG. 1) was at most 0.1%. Moreover, the “percentage of fertilized oocytes compared with nonoxynol-9” value in [3] (5% cellulose sulfate vs 2.2% commercial preparation of nonoxynol-9, intravaginal, rabbits) is listed as “as effective or more effective than nonoxynol-9”. Also, the risk of conception entry in data set [3] (5% formulation applied intra-vaginally in rabbits, FIG. 2) was “reduces the risk of conception”. In data set [4], the vaginal irritation entry is on record as “minimal vaginal irritation” and the “vaginal irritation in combination with nonoxynol-9” value was “does not cause an increase in the vaginal irritation of nonoxynol-9”. The “penetration by spermatozoa into the cervical mucus” value in data set [5] is “impedes penetration by spermatozoa into the cervical mucus membrane in vitro, and to a significantly greater extent than dextran sulfate”. In addition, in data set [6], the “acrosomal loss in human spermatozoa” value was “induces acrosomal loss in human spermatozoa, and to a significantly greater extent than heparin or dextran sulfate”. For the same substance, the “binding of HIV to human cells” value in data set [7] is on record as “inhibits the binding of HIV to human cells”. Moreover, in data set [8], the “concentration inhibiting infection of human cells by HSV” value was at most 0.00001%. In addition, in data set [9], the “concentration that can completely kill N. gonorrhea” value is “at least 0.01%”. In addition, the “effect on normal vaginal flora, Lactobacilli” value in [10] is recorded as “no effect”. For the same substance, the “inhibition of chlamydial infection of HeLa cells” value in [11] is reported as 91%.
For heparin sulfate, the “HIV infectivity in vitro” value in data set [12] was “inhibit HIV infectivity in vitro”. Further, the HSV inhibition entry in data set [13] is “inhibit HSV infectivity”.
For the substance dextran sulfate, the “anti-fertility effect of treating spermatozoa” value in [2] was “little or no anti-fertility effect”. The “HIV infectivity in vitro” value in data set [12] is “inhibit HIV infectivity in vitro”. Besides, in [13], the HSV inhibition entry is reported as “inhibit Herpes Simplex Virus (HSV)”.
